Experimental data reported in patent publication US8575100B2, “Tc and Re labeled radioactive glycosylated octreotide derivatives” (Mallinckrodt LLC, priority 2001, dated 2013).
Values belong to the substance of their own block, whether it stands above or below them.

What was measured:
[1] = Determination of lipophilicity (octanol/PBS); format: physicochemical; details: octanol/PBS pH 7.4; radiolabeled peptide; n=6
Description: To a solution of app. 300000 cpm of radiolabeled peptide in […] of PBS (pH 7.4), […] of octanol were added (n=6). Vials were vortexed for 3 min and then centrifuged at 15000 rpm for 6 min. Aliquots of […] of PBS and octanol were measured in a γ-Counter.

[2] = tested on: AR42J-cells (SSTR2); assay: Externalization and recycling of radioligands in AR42J cells; format: cell-based, rat; details: for externalisation from the cell (in words): upon incubation up to 120 min; for extracellularly located radioactivity compared to the experiment without recycling: externalization experiment that allowed recycling
Description: (§1) The cells were incubated with the radioligand for up to 120 min (n=3). At each time point the activity in the supernatant, the surface-bound and the internalized activity were determined and normalized to the values of TOC. Externalization and recycling was studied after an incubation time of 120 min over 2 h. Specificity of ligand binding was studied in a competition experiment with […] Sandostatin.
(§2) Internalisation and externalisation experiments were performed using the sst2 expressing rat pancreatic tumor cell line AR42J. Free, surface bound and internalised radioactivity were determined after 10, 30, 60, 90 and 120 min. of incubation with the radioligands at 37° C. In the externalisation experiments allowing ligand recycling, the fraction of radioactivity released into the supernatant during 10, 30, 60, 90 and 120 min as well as the radioactivity remaining in the cells were determined. We also measured the activity released during 5 subsequent incubations (10, 20 and 3×30 min) with intermediate changes of the medium (limited recycling).
As described for the internalization studies, the six-well plates were incubated at 37° C. with fresh culture medium (RPMI 1640, 1% BSA, 2 mM L-Glutamine) for 1H prior to the experiment. Then app. […] After incubating for 120 min. at 37° C., the supernatant was collected and the cells were washed once with 1 ml of cold medium. The supernatant was pooled with the supernatant of the previous step. To collect externalized radioactivity the cells were then incubated at 37° C. with 1 ml of culture medium. After 10, 30, 60, 90 and 120 minutes respectively, the supernatant was collected, the cells were washed once with 1 ml of culture medium and the supernatant was again pooled with the supernatant of the previous step. Then the cells were extracted with 1 ml of 1 N NaOH and the wells were rinsed once with PBS. This pooled fraction represents radioligand still located in the cell. The activity in the NaOH-fraction as well as in the supernatant- and in the externalisation-fractions was counted in a γ-Counter.
As described for the previous experiment, a six-well plate was incubated for 120 min. at 37° C. with radioligand. The supernatant was collected and the cells were washed once with 1 ml of cold medium. The supernatant was pooled with the supernatant of the previous step. To collect externalized radioactivity the cells were then incubated at 37° C. with 1 ml of culture medium. After 10 min. the supernatant was collected and the cells were again incubated with 1 ml of culture medium for another 20 min. at 37° C. The supernatant was collected and the cells were three more times incubated with 1 ml of culture medium for 30 min. at 37° C. Then the cells were extracted with 1 ml of 1 N NaOH and the wells were rinsed once with PBS. This pooled fraction represents radioligand still located in the cell. The activity in the NaOH-fraction as well as in the externalisation-fractions at all time points was counted in a […].

[3] = tested on: AR42J-cells (SSTR2); assay: Internalization of radioligands in AR42J cells; details: for internalised ligand / internalisation rate (% internalised ligand/% surface-bound ligand): 60 min incubation; for internalised ligand: normalized to the reference [125I]TOC; for internalisation rate (% internalised ligand/% surface-bound ligand): ratio normalized to the reference [125I]TOC
Description: as §1, §2
Coupling of glucose (Gluc) and maltotriose (Mtr) to N^α-Lys of N^ε-(Boc-His(Boc))Lys^0-Tyr^3-Lys^5(Dde)-octreotide (protected K(H)TOC) and final deprotection yielded Gluc- and Mtr-K(H)TOC. ^99mTc-labeling was carried out using [^99mTc(H2O)3(CO)3]^+. […] Biodistribution was evaluated in nude mice bearing AR42J tumors at 0.5 and 2 h p.i (n=4).
N^ε(Boc-His(Boc))Lys^0-Tyr^3-Lys^5 (Dde)-octreotide (protected K(H)TOC) was synthesized using standard Fmoc-chemistry. […] Tc-99m-labeling was carried out using the organometallic aquaion [^99mTc (H2O)3 (CO)3]^+(1). Internalization and externalization studies (<120 min) were performed for both compounds using the SSTR2 expressing cell line AR42J. […] Biodistribution of intravenously administered [^99mTc]Gluc-K(H)TOC and [^99mTc]Mtr-K(H)TOC was evaluated in nude mice bearing AR42J rat pancreatic tumors at 30 and 120 min p.i(n=4).
Six-well plates with a cell population of 8×10^5-5×10^6 AR42J-cells per well were incubated at 37° C. with fresh culture medium (RPMI 1640, 1% BSA, 2 mM L-glutamine) for 1 h prior to the experiment. Then app. […] After incubating for 10, 30, 60, 90 or 120 min. at 37° C. the supernatant was collected and the cells were washed once with 1 ml of cold medium. The supernatant was pooled with the supernatant of the previous step. To remove receptor bound (acid releasable) radioactivity the cells were incubated at 37° C. with 1 ml of 0.02 M NaOAc (acid wash). After 10 min. the supernatant was collected, the cells were washed once with 1 ml of 0.02 M NaOAc and the supernatant was again pooled with the supernatant of the previous step. Then the cells were extracted with 1 ml of 1 N NaOH and the wells were rinsed once with PBS. This pooled fraction represents internalized radioligand. The activity in the NaOH-fraction as well as in the supernatant- and in the acid wash-fractions was counted in a γ-Counter.

log Pow [1]: log Pow = −0.673 ± 0.064
Substance: (1-deoxy-D-fructosyl)-Lys^0Nε-His)-Tyr^3-octreotide [S1-Lys^0(His)TOC]

Substance: Na-(1-deoxy-D-fructosyl)-Lys^0(Nε-His [^99mTc (H2O)(CO)3]+)-Tyr^3-octreotide [[^99mTc]Gluc-K^0(H)TOC]
externalisation from the cell (in words) [2]: remains trapped within the cell up to 120 min | externalisation from the cell (in words) ([2]; listed as [^99mTc]Gluc-K(H)TOC): almost stable up to 2h | retention in the cell under recycling conditions ([2]; within 120 min, recycling allowed): nearly quantitative retention | internalised ligand [3]: 234 ± 24 | internalisation rate (% internalised ligand/% surface-bound ligand) [3]: 171 ± 29 | increase of internalisation by a factor compared to the reference [125I]TOC ([3]; Example 2, time not given): 2.3±0.8 | intracellular activity levels, times higher than [125I]TOC ([3]; at 2 h (120 min)): 2.3±0.2 times

surface availability (% surface-bound ligand/% free radioligand) [3]: 182 ± 6
Substance: [^125I]Tyr^3-octreotate [[^125I]TOCA]
extracellularly located radioactivity compared to the experiment without recycling ([2]; printed as a fraction): about ⅔ | internalised ligand [3]: 204 ± 7 | internalisation rate (% internalised ligand/% surface-bound ligand) [3]: 140 ± 8 | amount of internalized ligand [% internalized TOC] ([3]; after 2 h of incubation, normalized to TOC): 154% | internalization rate (internalized/surface bound act.) increase ([3]; compared to TOC): 1.4 fold | surface concentration (availability on the cell surface) increased by a factor compared to TOC ([3]; compared to TOC): 2.1

Substance: [^125I]Tyr^3-octreotide [[^125I]TOC]
extracellularly located radioactivity compared to the experiment without recycling [2]: about 80% | externalisation from the cell (in words) [2]: rapidly externalised | decrease of intracellular activity ([2]; within 2 h (120 min)): about 50% | internalised ligand [3]: 100 | internalisation rate (% internalised ligand/% surface-bound ligand) [3]: 100
